# Assay results as given in the NIST ThermoML archive (doi:10.1016/j.fluid.2017.03.025).
# Values joined by “and” are separate entries in the source; they are usually repeats but may differ in a detail not shown here. Equal entries are not always repeated. ± gives the expanded uncertainty stated by the source.
# Assay: wn = mass fraction of the nth substance listed
# Conditions: discharge crucible method; for mass density / viscosity: 101 kPa, Liquid
structure (smiles),measurement,setting,value
[Zn] [zinc] + [Ga],surface tension liquid-gas,"323 K, w1 = 0.036",722.9 ± 1 mN/m
same,mass density,"323 K, w1 = 0.036",6081 ± 10 kg/m3
same,viscosity,"323 K, w1 = 0.036",1.576 ± 0.084 mPa·s
same,surface tension liquid-gas,"373 K, w1 = 0.036",719.2 ± 1 mN/m
same,mass density,"373 K, w1 = 0.036",6049 ± 10 kg/m3
same,viscosity,"373 K, w1 = 0.036",1.336 ± 0.079 mPa·s
same,surface tension liquid-gas,"423 K, w1 = 0.036",715.6 ± 1 mN/m
same,surface tension liquid-gas,"423 K, w1 = 0.25",733 ± 1 mN/m
same,mass density,"423 K, w1 = 0.036",6018 ± 10 kg/m3
same,viscosity,"423 K, w1 = 0.036",1.139 ± 0.076 mPa·s
same,mass density,"423 K, w1 = 0.25",6205 ± 10 kg/m3
same,viscosity,"423 K, w1 = 0.25",2.596 ± 0.099 mPa·s
same,surface tension liquid-gas,"473 K, w1 = 0.036",712 ± 0.9 mN/m
same,surface tension liquid-gas,"473 K, w1 = 0.25",728.9 ± 0.9 mN/m
same,mass density,"473 K, w1 = 0.036",5989 ± 10 kg/m3
same,viscosity,"473 K, w1 = 0.036",1.018 ± 0.058 mPa·s
same,mass density,"473 K, w1 = 0.25",6175 ± 10 kg/m3
same,viscosity,"473 K, w1 = 0.25",2.037 ± 0.077 mPa·s
same,surface tension liquid-gas,"523 K, w1 = 0.036",708.4 ± 0.9 mN/m
same,surface tension liquid-gas,"523 K, w1 = 0.25",723.5 ± 0.9 mN/m
same,mass density,"523 K, w1 = 0.036",5956 ± 10 kg/m3
same,viscosity,"523 K, w1 = 0.036",0.924 ± 0.049 mPa·s
same,mass density,"523 K, w1 = 0.25",6146 ± 10 kg/m3
same,viscosity,"523 K, w1 = 0.25",1.733 ± 0.063 mPa·s
same,surface tension liquid-gas,"573 K, w1 = 0.036",704.9 ± 0.8 mN/m
same,surface tension liquid-gas,"573 K, w1 = 0.25",718.9 ± 1.1 mN/m
same,surface tension liquid-gas,"573 K, w1 = 0.5",748.5 ± 1.3 mN/m
same,mass density,"573 K, w1 = 0.036",5929 ± 10 kg/m3
same,viscosity,"573 K, w1 = 0.036",0.845 ± 0.044 mPa·s
same,mass density,"573 K, w1 = 0.25",6115 ± 10 kg/m3
same,viscosity,"573 K, w1 = 0.25",1.529 ± 0.062 mPa·s
same,mass density,"573 K, w1 = 0.5",6355 ± 10 kg/m3
same,viscosity,"573 K, w1 = 0.5",2.861 ± 0.093 mPa·s
same,surface tension liquid-gas,"623 K, w1 = 0.036",701.2 ± 0.8 mN/m
same,surface tension liquid-gas,"623 K, w1 = 0.25",714.6 ± 1 mN/m
same,surface tension liquid-gas,"623 K, w1 = 0.5",739.8 ± 1.3 mN/m
same,surface tension liquid-gas,"623 K, w1 = 0.75",773.5 ± 1.5 mN/m
same,mass density,"623 K, w1 = 0.036",5896 ± 9 kg/m3
same,viscosity,"623 K, w1 = 0.036",0.779 ± 0.04 mPa·s
same,mass density,"623 K, w1 = 0.25",6079 ± 10 kg/m3
same,viscosity,"623 K, w1 = 0.25",1.375 ± 0.053 mPa·s
same,mass density,"623 K, w1 = 0.5",6323 ± 11 kg/m3
same,viscosity,"623 K, w1 = 0.5",2.394 ± 0.079 mPa·s
same,mass density,"623 K, w1 = 0.75",6584 ± 11 kg/m3
same,viscosity,"623 K, w1 = 0.75",3.588 ± 0.11 mPa·s
same,surface tension liquid-gas,"673 K, w1 = 0.036",697.7 ± 0.8 mN/m
same,surface tension liquid-gas,"673 K, w1 = 0.25",709.7 ± 0.9 mN/m
same,surface tension liquid-gas,"673 K, w1 = 0.5",733.3 ± 1.2 mN/m
same,surface tension liquid-gas,"673 K, w1 = 0.75",764.1 ± 1.6 mN/m
same,surface tension liquid-gas,"673 K, w1 = 0.9",792.3 ± 2 mN/m
same,mass density,"673 K, w1 = 0.036",5866 ± 10 kg/m3
same,viscosity,"673 K, w1 = 0.036",0.736 ± 0.037 mPa·s
same,mass density,"673 K, w1 = 0.25",6052 ± 10 kg/m3
same,viscosity,"673 K, w1 = 0.25",1.261 ± 0.048 mPa·s
same,mass density,"673 K, w1 = 0.5",6302 ± 11 kg/m3
same,viscosity,"673 K, w1 = 0.5",2.112 ± 0.068 mPa·s
same,mass density,"673 K, w1 = 0.75",6557 ± 11 kg/m3
same,viscosity,"673 K, w1 = 0.75",3.019 ± 0.09 mPa·s
same,mass density,"673 K, w1 = 0.9",6721 ± 12 kg/m3
same,viscosity,"673 K, w1 = 0.9",3.809 ± 0.11 mPa·s
same,surface tension liquid-gas,"723 K, w1 = 0.036",693.8 ± 0.5 mN/m and 694.3 ± 0.5 mN/m
same,surface tension liquid-gas,"723 K, w1 = 0.25",705.2 ± 0.9 mN/m and 705.5 ± 0.9 mN/m
same,surface tension liquid-gas,"723 K, w1 = 0.5",725.3 ± 1.1 mN/m
same,surface tension liquid-gas,"723 K, w1 = 0.75",753.4 ± 1.5 mN/m and 754 ± 1.5 mN/m
same,surface tension liquid-gas,"723 K, w1 = 0.9",780.5 ± 2.3 mN/m and 780.4 ± 2.3 mN/m
same,surface tension liquid-gas,"723 K, w1 = 1",812.1 ± 0.7 mN/m
same,mass density,"723 K, w1 = 0.036",5836 ± 6 kg/m3
same,viscosity,"723 K, w1 = 0.036",0.709 ± 0.035 mPa·s and 0.699 ± 0.035 mPa·s
same,mass density,"723 K, w1 = 0.25",6024 ± 10 kg/m3 and 6025 ± 10 kg/m3
same,viscosity,"723 K, w1 = 0.25",1.148 ± 0.044 mPa·s and 1.159 ± 0.044 mPa·s
same,mass density,"723 K, w1 = 0.5",6277 ± 11 kg/m3 and 6276 ± 11 kg/m3
same,viscosity,"723 K, w1 = 0.5",1.875 ± 0.06 mPa·s and 1.871 ± 0.06 mPa·s
same,mass density,"723 K, w1 = 0.75",6537 ± 11 kg/m3 and 6536 ± 11 kg/m3
same,viscosity,"723 K, w1 = 0.75",2.625 ± 0.078 mPa·s
same,mass density,"723 K, w1 = 0.9",6699 ± 12 kg/m3 and 6700 ± 12 kg/m3
same,viscosity,"723 K, w1 = 0.9",3.225 ± 0.096 mPa·s and 3.241 ± 0.096 mPa·s
same,mass density,"723 K, w1 = 1",6831 ± 4 kg/m3
same,viscosity,"723 K, w1 = 1",3.721 ± 0.095 mPa·s
same,surface tension liquid-gas,"773 K, w1 = 0.036",690.8 ± 0.7 mN/m
same,surface tension liquid-gas,"773 K, w1 = 0.25",700.4 ± 0.8 mN/m
same,surface tension liquid-gas,"773 K, w1 = 0.5",717.7 ± 1 mN/m
same,surface tension liquid-gas,"773 K, w1 = 0.75",744.6 ± 1.4 mN/m
same,surface tension liquid-gas,"773 K, w1 = 0.9",768.7 ± 1.7 mN/m
same,mass density,"773 K, w1 = 0.036",5806 ± 10 kg/m3
same,viscosity,"773 K, w1 = 0.036",0.662 ± 0.034 mPa·s
same,mass density,"773 K, w1 = 0.25",5998 ± 10 kg/m3
same,viscosity,"773 K, w1 = 0.25",1.098 ± 0.041 mPa·s
same,mass density,"773 K, w1 = 0.5",6249 ± 11 kg/m3
same,viscosity,"773 K, w1 = 0.5",1.693 ± 0.053 mPa·s
same,mass density,"773 K, w1 = 0.75",6512 ± 11 kg/m3
same,viscosity,"773 K, w1 = 0.75",2.323 ± 0.068 mPa·s
same,mass density,"773 K, w1 = 0.9",6679 ± 12 kg/m3
same,viscosity,"773 K, w1 = 0.9",2.813 ± 0.083 mPa·s
same,surface tension liquid-gas,"823 K, w1 = 0.9",755.5 ± 1.5 mN/m
same,mass density,"823 K, w1 = 0.9",6657 ± 12 kg/m3
same,viscosity,"823 K, w1 = 0.9",2.517 ± 0.075 mPa·s
